Experimental data as given in US5622839A (ZymoGenetics, Inc., priority 1995, dated 1997).
Like-named read-outs stand apart in the source and are kept apart here.

Key:
[1] = target: T1, human calcitonin receptor (Homo sapiens, UniProt P30988); assay: CRE-luciferase induction in BHK/KZ10-20-48 cells transfected with pHollex (Hollex1, Hollex2); format: cell-based; conditions: Hollex1 and Hollex2 clones; 4 h at 37° C.; FIG. 3 and FIG. 4
T1 construct: Hollex encoded a protein of 474 amino acids; expressed in transfected cells; host or cells: BHK 570 / BHK/KZ10-20-48 (baby hamster kidney) stably transfected with pHollex
T1 sequence (P30988 25-474): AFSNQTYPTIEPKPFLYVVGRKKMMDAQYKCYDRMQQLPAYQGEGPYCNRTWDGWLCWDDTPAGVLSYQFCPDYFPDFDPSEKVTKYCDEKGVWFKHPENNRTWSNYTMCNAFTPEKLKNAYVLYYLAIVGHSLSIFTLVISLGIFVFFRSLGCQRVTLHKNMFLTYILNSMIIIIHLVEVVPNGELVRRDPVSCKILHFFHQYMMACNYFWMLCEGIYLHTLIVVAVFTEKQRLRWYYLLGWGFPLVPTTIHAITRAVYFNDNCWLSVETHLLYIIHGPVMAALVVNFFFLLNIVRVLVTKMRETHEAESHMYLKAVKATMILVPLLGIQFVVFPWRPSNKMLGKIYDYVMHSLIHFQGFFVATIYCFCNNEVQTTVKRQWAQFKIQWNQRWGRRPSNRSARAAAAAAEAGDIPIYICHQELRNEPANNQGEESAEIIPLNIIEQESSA
Method: This cell line permits the measurement of luciferase activity, adenylate cyclase activity and intracellular calcium concentrations in response to calcitonin binding to its receptor.
Plasmid KZ10 was transfected into BHK570 cells (available from ATCC as Accession no. CRL 10314) using the calcium phosphate precipitation method essentially as described by Graham and Van de Eb (Virol. 52: 456, 1973, which is incorporated by reference herein). The transfected cells were grown in growth medium (Dulbecco's modified Eagle's medium (DMEM) containing 10% fetal calf serum and 2.0 mm L-glutamine). After a few days in nonselective growth medium, the growth medium was replaced with methotrexate (MTX) selection medium (growth medium containing 250 nM MTX). The cells were then allowed to grow to confluency after which they were trypsinized and plated at limiting dilution into the wells of 96-well plates. […]
Induction was initiated by removing old medium from the wells and adding 100 μl of fresh growth medium and 100 μl of each 2× solution in triplicate sample wells. Uninduced levels were determined in triplicate wells to which 100 μl of DMEM containing 10% fetal calf serum was added. […]
Following induction, the medium was removed, and the wells were washed once with 200 μl/well PBS. […] The fold induction of luciferase for each agonist was calculated as follows: […]

[2] = target: T1, human calcitonin receptor; assay: cAMP response by radioimmunoassay (scintillation proximity assay) in Hollex1 and Hollex2; format: cell-based; conditions: 10 min; for EC50: read-out: ED50 (cAMP)
Method: The cAMP response of the transfectant clones Hollex1 and Hollex2 to calcitonin and forskolin was also assayed by radioimmunoassay using the cAMP [^125 I] scintillation proximity assay system (Amersham) using the manufacturer's directions. Briefly, either 1×10^5 cells per well or 3×10^5 cells per well were plated into the wells of a 24-well culture dish and grown for 2 days (1×10^5 cells per well) or overnight (3×10^5 cells per well) in selection medium. Calcitonin and forskolin were prepared in DMEM, 10% fetal calf serum, 10 μM IBMX at 0.0001-1000 nM and 25 μM, respectively.
The growth medium was replaced with 200 μl/well of agonist (either calcitonin or forskolin). The cells were incubated with the agonists for 10 minutes at 37° C. in 5% CO2. Following incubation, 800 μl of boiling water was added to each well. After 15 minutes the supernatants were collected and diluted 1:5 or 1:40 in acetate buffer (cAMP [^125 I] Scintillation Proximity Assay System (Amersham)). Samples were acetylated using triethylamine and acetic anhydride according to the protocol provided by the manufacturer.
A 100 μl aliquot of each acetylated sample was combined with 75 μl of ^125 I-cAMP, 75 μl anti-succinyl cAMP antisera and 75 μl of donkey anti-rabbit IgG coupled SPA beads (all assay solutions provided in the cAMP [^125 I] Scintillation Proximity Assay System (Amersham)) in a well of an Dynatech MICROLITE 2 plate. The trays were sealed and incubated overnight with continuous shaking on a rotary platform shaker at 200 rpm. The samples were counted in a Packard Top Count Microplate Scintillation Counter (Packard Instrument Co., Meriden, Conn.). A standard curve of 2-128 fmol acetylated cAMP was also run. Total ^125 I-cAMP bound and nonspecific binding were also determined.

T47D cells = target: T2, T47D cells (Homo sapiens, UniProt P30988); assay: Calcitonin competition binding assay with T47D cells (positive control); conditions: T47D (pos. control)
T2 construct: T47D cells were used as a positive control; endogenous in cells; host or cells: T47D human breast carcinoma cells
T2 sequence (P30988 25-474): T1 sequence (P30988 25-474)
Method: Clones Hollex1 and Hollex2 were tested for receptor-mediated ability to bind calcitonin using a competition assay. T47D cells were used as a positive control and BHK cells transfected with Zem1698 were used as a negative control.
The cells were rinsed in binding medium (500 ml RPMI 1640 (Sigma, St. Louis, Mo.), 1 mg/ml bacitracin (Sigma), and 1 mg/ml BSA (Boehringer Mannheim)) to remove the serum. […] The cells were incubated for 1.5 hours at room temperature, and then rinsed 3 times with PBS to remove unincorporated radioactivity. Five hundred microliters of 0.25N NaOH was added to each well to solubilize the cells. The samples were collected from each well and CPMs were counted on a gamma counter.

bone resorption = conditions: compared with human forms of calcitonin; background; cited from earlier work

## salmon calcitonin
[1]
  fold induction of luciferase: 5-10 fold
[2]; Hollex1
  EC50: 0.07 nM
[2]; Hollex1, saturating concentrations (10-100 nM)
  induction of cAMP: 12 fold
[2]; Hollex2
  EC50: 0.04 nM
[2]; Hollex2, saturating concentrations (10-100 nM)
  induction of cAMP levels: 5 fold
T47D cells
  Kd: 0.6 ± 0.5 nM
Bone resorption
  effectiveness in arresting bone resorption: considerably more effective
